Laboratory results as given in publication PMC12654037, “Norditerpene Natural Products from Subterranean Fungi with Anti-Parasitic Activity” (Microorganisms, 2025).

Key:
[1] = HCT-8 cytotoxicity assay; format: cell-based; details: human; sub-confluent (~40% confluency); read-out: EC50 cytotoxicity against sub-confluent HCT-8 cells
Description: (§1) HCT-8 and HFF cytotoxicity assays: Cytotoxicity of the compounds was determined against both confluent (the conditions of the infection assays) and growing HCT-8 and HFF host cells, as previously described. Cells were seeded into white-sided, clear-bottom 96-well plates and grown to either 40% or 100% confluency. Compounds were added to cells at various concentrations up to 100 µM in a final DMSO concentration of 0.5%. DMSO was run in parallel as a vehicle control. After 48 h, the viability of the cells was determined by either quantification of cellular ATP (Cell-Titer Glo cell viability assay; Promega, Madison WI, USA) or by MTT assay. Viability was determined 24 h after compound addition to HFF cells or 48 h after compound addition to HCT-8 cells or HepG2 cells. The percent cell growth was then calculated with the following formula: % Cell Growth = [RLUcompound/RLUDMSO] × 100. Samples were run in triplicate with two to three biological replicates.

[2] = test system: HCT-8 cells; assay: HCT-8 cytotoxicity assay; format: cell-based
Description: as §1

[3] = Microsomal stability assay, mouse; details: microsomes, pH 7.4
Description: Microsomal stability assay. The in vitro microsomal stability assay was conducted in duplicate in commercially available mouse or human liver microsomes (Sekisui XenoTech, Kansas City, KS, USA), which were supplemented with nicotinamide adenine dinucleotide phosphate (NADPH) as a cofactor. […] The reaction was initiated by the addition of 1 mmol/L NADPH, followed by incubation at 37 °C. A negative control was performed in parallel without NADPH to reveal any chemical instability or non-NADPH dependent enzymatic degradation for each compound. […] At various time points (0, 5, 15, 30, and 60 min), a 40 µL of reaction aliquot was taken and quenched with 120 µL of acetonitrile containing 0.1% formic acid. The samples were then vortexed and centrifuged at 15,000 rpm for 5 min at 4 °C. The supernatants were collected and analyzed by LC-MS/MS to determine the in vitro metabolic half-life (t1/2).

[4] = test system: C. parvum asexual and sexual stages; assay: C. parvum asexual/sexual stage assay (4 h treatment windows); format: cell-based, Cryptosporidium parvum
Description: To determine -static versus -cidal activity, the infection assay was conducted as described, but infected cells were treated with compounds for 30 min up to 24 h. The compounds were removed after the designated times, and infection was quantified at 72 h post-infection. To determine the activity of the compounds against asexual and sexual stages of the parasite, compounds were added for 4 h windows at times corresponding to asexual or sexual development. Parasite proliferation was then determined at 72 h post-infection. For all assays, each sample was run in triplicate, and three biological replicates were performed.

[5] = test system: C. parvum; assay: Inhibition of C. parvum infection in IFNγ −/− mice; format: in vivo, C57BL/6 IFNγ −/− mice; details: 4 mg/kg oral gavage every 12 h, four doses, days 5 and 6 post-infection, AUC of RLUs/gram feces
Description: (§2) Inhibition of C. parvum infection in IFN-gamma knock-out (IFNγ −/−) mice: Twelve female C57BL/6 IFNγ −/− mice (4 weeks old) from the Jackson Laboratory were housed in a controlled environment with a 12 h light/dark cycle and access to food and water ad libitum. Cp-NLuc oocysts were isolated from infected mouse feces and purified using a sodium chloride density gradient. Mice were inoculated via oral gavage with a suspension of 10^4 oocysts in 50 µL sterile PBS. On days 5 and 6 post-infection, mice were treated with 4 mg/kg of oidiolactone A or DMSO vehicle control every 12 h for a total of four doses (6 mice per treatment group). Fecal samples were collected daily and stored at −20 °C until analysis. Feces were homogenized in a lysis buffer solution, centrifuged, and the supernatant was incubated with Nano-Glo® substrate in a 96-well plate, as previously described. Luminescence was measured in a microplate reader immediately after substrate addition. Oocyst shedding, measured in RLUs/gram of feces, was plotted over time, and the area under the curve was determined for each mouse. Mice were sacrificed 14 days post-infection, and serum was collected for biochemical analysis. Biochemical analyses were performed using the Beckman Coulter AU480 automated analyzer (Beckman Coulter, Brea, CA, USA) at the Clinical Pathology Laboratory, Veterinary Medical Center, University of Minnesota.

[6] = Serum biochemical analysis of infected and treated IFNγ −/− mice; format: in vivo, C57BL/6 IFNγ −/− mice
Description: as §2

[7] = test system: T. gondii intracellular stages; assay: T. gondii immunofluorescence assay; format: cell-based, Toxoplasma gondii; details: 7.5 µM, 24 h
Description: For T. gondii IFAs, confluent HFF cells in 4-well chamber cell culture glass slides were infected with either 5 × 10^4 or 1 × 10^5 parasites/mL. At 6 hpi, 7.5 µM oidiolactone A or DMSO control was diluted in culture medium and added to the slides for 24 h. The slides were then fixed with 4% paraformaldehyde and permeabilized with 0.25% Triton-X. The slides were blocked with 3% goat serum in 0.25% Triton-X. The parasites were visualized with anti-T. gondii SAG1 and Alexa Fluor 594 goat anti-rabbit antibody. The slides were mounted, and images were acquired as described above and processed with NIS Elements GA3 (general analysis 3).

[8] = test system: HuF fibroblast cell line; details: cited from earlier work
[9] = test system: P. falciparum line Dd2; assay: Plasmodium falciparum growth inhibition assay (SYBR Green I), Dd2
Description: (§3) Plasmodium falciparum growth inhibition assay: Antiplasmodial EC50 results were determined using a fluorescence-based SYBR Green I assay performed using asynchronous cultures [30, 35]. […] Plates were subsequently frozen at −80 °C to facilitate lysis. […] Relative fluorescence units (RFUs) were normalized based on chloroquine-treated and no treatment controls. Serial dilutions of compounds were prepared in RPMI with final assay conditions of ≤0.2% DMSO. Each assay was conducted in triplicate with three biological replicates.

[10] = test system: P. falciparum 3D7; assay: Plasmodium falciparum growth inhibition assay (SYBR Green I), 3D7; details: 3D7, 72 h, read-out: EC50 3D7(M)
Description: as §3

Compound: CO[C@H]1OC(=O)C=C2[C@@]13O[C@@H]3[C@H]1OC(=O)[C@@]3(C)CCC[C@@]2(C)[C@@H]13 [compound 1, oidiolactone A]
- EC50 at 48 h [1]: 29.7 µM
- TC50 HCT-8 (confluent) ([2]; confluent): > 30 µM
- toxicity to host cells (no toxicity up to) ([2]; confluent HCT-8, conditions of the infection assay, 48 h, cellular ATP): > 100 µM
- TC50 HCT-8 (sub-confluent) ([2]; sub-confluent): 29.7 ± 1.8 µM
- half-life at 1 µmol/L [3]: 1.84 ± 0.0717 h
- activity against gamete stages ([4]; 7.5 μM, 4 h intervals): no activity
- inhibition at 7.5 µM ([4]; Cryptosporidium parvum, 4 h intervals post-infection, read 72 h, read-out: inhibition of parasites in asexual stage and transition to sexual stages): 20 to 75%
- reduction in C. parvum oocyst shedding [5]: 70%
- signs of acute toxicity (liver, renal, metabolic, cardiac functions, protein status, electrolytes vs control) ([6]; 4 mg/kg x 4 doses, serum day 14): no statistically significant differences
- LIH (sum of lipemia, icterus, and hemolysis scores per mouse) ([6]; serum, mean ± SD): 1.5 ± 0.71
- ALP ([6]; serum, mean ± SD of two mice): 182.00 ± 15.56 U/L
- ALT ([6]; serum, mean ± SD of two mice): 37.50 ± 6.36 U/L
- AST ([6]; serum, mean ± SD of two mice): 229.50 ± 31.82 U/L
- Alb ([6]; serum, mean ± SD of two mice): 3.30 ± 0.14 g/dL
- Amy ([6]; serum, mean ± SD of two mice): 456.00 ± 80.61 U/L
- An Gap (calc.) ([6]; serum, mean ± SD of two mice): 27.00 ± 1.41
- BUN ([6]; serum, mean ± SD of two mice): 21.50 ± 4.95 mg/dL
- CK ([6]; serum, mean ± SD of two mice): 1618.00 ± 376.18 U/L
- Ca ([6]; serum, mean ± SD of two mice): 10.55 ± 0.07 mg/dL
- Chol ([6]; serum, mean ± SD of two mice): 92.50 ± 7.78 mg/dL
- Creat ([6]; serum, mean ± SD of two mice): 0.00 ± 0.00 mg/dL
- GGT ([6]; serum, mean ± SD of two mice): 0.00 ± 0.00 U/L
- Glob (calc.) ([6]; serum, mean ± SD of two mice): 1.55 ± 0.07 g/dL
- Gluc ([6]; serum, mean ± SD of two mice): 280.00 ± 15.56 mg/dL
- HCO3 ([6]; serum, mean ± SD of two mice): 14.85 ± 1.48 mmol/L
- K ([6]; serum, mean ± SD of two mice): 5.15 ± 0.07 mmol/L
- Mg ([6]; serum, mean ± SD of two mice): 2.75 ± 0.07 mg/dL
- Na ([6]; serum, mean ± SD of two mice): 149.50 ± 0.71 mmol/L
- Osmol (calc.) ([6]; serum, mean ± SD of two mice): 310.00 ± 1.41
- Phos ([6]; serum, mean ± SD of two mice): 10.25 ± 0.35 mg/dL
- T. Bili ([6]; serum, mean ± SD of two mice): 0.10 ± 0.00 mg/dL
- TP ([6]; serum, mean ± SD of two mice): 4.85 ± 0.21 g/dL
- abundance of treated T. gondii parasites by IFA [7]: much lower abundances
- cytotoxicity against human fibroblast [8]: no cytotoxicity observed
- TC50 HuF (sub-confluent) ([8]; sub-confluent, ref Rusman et al. 2020 [25]): > 30 µM
- SI: selectivity index=EC50 HepG2/ EC50 compound [9]: > 11
- EC50 ([9]; Plasmodium falciparum, DD2, 72 h, read-out: EC50 Dd2 (M)): 2.26e-06 ± 4.6e-07 M
- EC50 [10]: 3.33e-06 ± 6.4e-07 M
